# From PubChem BioAssay (NCI)
#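 In this assay, cells in 96-well plates receive the compound at five concentrations for 48 hours. Endpoints are linearly interpolated between the surrounding concentrations. TGI marks complete inhibition of growth.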
# How the values were obtained:
# Experiment in all cases: inhibition of tumour cell growth, NCI panel, 48 h
# [1] = tested on: 786-0 renal
# [2] = tested on: A498 renal
# [3] = tested on: A549 NSCLC
# [4] = tested on: ACHN renal
# [5] = tested on: CAKI-1 renal
# [6] = tested on: CCRF-CEM leukemia
# [7] = tested on: COLO 205 colon
# [8] = tested on: DU-145 prostate
# [9] = tested on: EKVX NSCLC
# [10] = tested on: HCC-2998 colon
# [11] = tested on: HCT-116 colon
# [12] = tested on: HCT-15 colon
# [13] = tested on: HL-60(TB) leukemia
# [14] = tested on: HOP-62 NSCLC
# [15] = tested on: HOP-92 NSCLC
# [16] = tested on: HS 578T breast
# [17] = tested on: HT29 colon
# [18] = tested on: IGROV1 ovarian
# [19] = tested on: K-562 leukemia
# [20] = tested on: KM12 colon
# [21] = tested on: LOX IMVI melanoma
# [22] = tested on: M14 melanoma
# [23] = tested on: MALME-3M melanoma
# [24] = tested on: MCF7 breast
# [25] = tested on: MDA-MB-231 breast
# [26] = tested on: MDA-MB-435
# [27] = tested on: MDA-N
# [28] = tested on: MOLT-4 leukemia
# [29] = tested on: NCI-H226 lung
# [30] = tested on: NCI-H23 lung
# [31] = tested on: NCI-H460 lung
# [32] = tested on: NCI-H522 lung
# [33] = tested on: NCI/ADR-RES ovarian
# [34] = tested on: OVCAR-3 ovarian
# [35] = tested on: OVCAR-4 ovarian
# [36] = tested on: OVCAR-5 ovarian
# [37] = tested on: OVCAR-8 ovarian
# [38] = tested on: PC-3 prostate
# [39] = tested on: RPMI-8226 leukemia
# [40] = tested on: RXF 393 renal
# [41] = tested on: SF-268 CNS
# [42] = tested on: SF-295 CNS
# [43] = tested on: SF-539 CNS
# [44] = tested on: SK-MEL-2 melanoma
# [45] = tested on: SK-MEL-28 melanoma
# [46] = tested on: SK-MEL-5 melanoma
# [47] = tested on: SN12C renal
# [48] = tested on: SNB-19 CNS
# [49] = tested on: SR leukemia
# [50] = tested on: SW-620 colon
# [51] = tested on: T-47D breast
# [52] = tested on: TK-10 renal
# [53] = tested on: U251 CNS
# [54] = tested on: UACC-257 melanoma
# [55] = tested on: UACC-62 melanoma
# [56] = tested on: UO-31 renal
# [57] = tested on: SK-OV-3 ovarian
# [58] = tested on: SNB-75 CNS
# [59] = tested on: BT-549 breast
compound,measurement,setting,value
CC1CC(C)CC(NC2=NCCO2)C1 (configuration not stated),TGI,[1],> 100 µM
same,TGI,[2],> 100 µM
same,TGI,[3],> 100 µM
same,TGI,[4],> 100 µM
same,TGI,[5],> 100 µM
same,TGI,[6],> 100 µM
same,TGI,[7],> 100 µM
same,TGI,[8],> 100 µM
same,TGI,[9],> 100 µM
same,TGI,[10],> 100 µM
same,TGI,[11],> 100 µM
same,TGI,[12],> 100 µM
same,TGI,[13],> 100 µM
same,TGI,[14],> 100 µM
same,TGI,[15],> 100 µM
same,TGI,[16],> 100 µM
same,TGI,[17],> 100 µM
same,TGI,[18],> 100 µM
same,TGI,[19],> 100 µM
same,TGI,[20],> 100 µM
same,TGI,[21],> 100 µM
same,TGI,[22],> 100 µM
same,TGI,[23],> 100 µM
same,TGI,[24],> 100 µM
same,TGI,[25],> 100 µM
same,TGI,[26],> 100 µM
same,TGI,[27],> 100 µM
same,TGI,[28],> 100 µM
same,TGI,[29],> 100 µM
same,TGI,[30],> 100 µM
same,TGI,[31],> 100 µM
same,TGI,[32],> 100 µM
same,TGI,[33],> 100 µM
same,TGI,[34],> 100 µM
same,TGI,[35],> 100 µM
same,TGI,[36],> 100 µM
same,TGI,[37],> 100 µM
same,TGI,[38],> 100 µM
same,TGI,[39],> 100 µM
same,TGI,[40],> 100 µM
same,TGI,[41],> 100 µM
same,TGI,[42],> 100 µM
same,TGI,[43],> 100 µM
same,TGI,[44],> 100 µM
same,TGI,[45],> 100 µM
same,TGI,[46],> 100 µM
same,TGI,[47],> 100 µM
same,TGI,[48],> 100 µM
same,TGI,[49],> 100 µM
same,TGI,[50],> 100 µM
same,TGI,[51],> 100 µM
same,TGI,[52],> 100 µM
same,TGI,[53],> 100 µM
same,TGI,[54],> 100 µM
same,TGI,[55],> 100 µM
same,TGI,[56],> 100 µM
CCCC1C(CC)C(NC)C(C#N)(C#N)C1(C#N)C#N (configuration not stated),TGI,[1],34.3 µM
same,TGI,[2],31.9 µM
same,TGI,[3],> 100 µM
same,TGI,[4],43.1 µM
same,TGI,[5],25.9 µM
same,TGI,[6],> 100 µM
same,TGI,[7],26.6 µM
same,TGI,[8],27.2 µM
same,TGI,[9],87.6 µM
same,TGI,[10],32.9 µM
same,TGI,[11],30.1 µM
same,TGI,[12],28.7 µM
same,TGI,[13],91.8 µM
same,TGI,[14],29.2 µM
same,TGI,[15],32.2 µM
same,TGI,[16],> 100 µM
same,TGI,[17],27.6 µM
same,TGI,[18],33.4 µM
same,TGI,[19],> 100 µM
same,TGI,[20],30.9 µM
same,TGI,[21],36.1 µM
same,TGI,[22],> 100 µM
same,TGI,[23],63.8 µM
same,TGI,[24],> 100 µM
same,TGI,[25],30.1 µM
same,TGI,[26],> 100 µM
same,TGI,[27],36.1 µM
same,TGI,[28],76.9 µM
same,TGI,[29],35.4 µM
same,TGI,[30],46.8 µM
same,TGI,[32],33.3 µM
same,TGI,[33],59 µM
same,TGI,[35],> 100 µM
same,TGI,[36],> 100 µM
same,TGI,[37],58.9 µM
same,TGI,[38],39.9 µM
same,TGI,[39],43.8 µM
same,TGI,[40],28 µM
same,TGI,[41],34.3 µM
same,TGI,[42],41.9 µM
same,TGI,[43],34.8 µM
same,TGI,[44],35.7 µM
same,TGI,[45],94.3 µM
same,TGI,[46],24.5 µM
same,TGI,[57],> 100 µM
same,TGI,[47],34.5 µM
same,TGI,[48],48.5 µM
same,TGI,[58],22.5 µM
same,TGI,[49],82.3 µM
same,TGI,[50],> 100 µM
same,TGI,[51],29 µM
same,TGI,[52],34.6 µM
same,TGI,[53],95.1 µM
same,TGI,[54],33.3 µM
same,TGI,[55],39.2 µM
same,TGI,[56],30 µM
Clc1ccc(-c2cc(-c3cc(-c4ccc(Cl)cc4)n[nH]3)[nH]n2)cc1,TGI,[2],> 100 µM
same,TGI,[4],> 100 µM
same,TGI,[59],> 100 µM
same,TGI,[7],> 100 µM
same,TGI,[8],> 100 µM
same,TGI,[9],> 100 µM
same,TGI,[11],> 100 µM
same,TGI,[18],> 100 µM
same,TGI,[19],> 100 µM
same,TGI,[22],> 100 µM
same,TGI,[23],> 100 µM
same,TGI,[26],> 100 µM
same,TGI,[27],> 100 µM
same,TGI,[28],> 100 µM
same,TGI,[29],> 100 µM
same,TGI,[30],> 100 µM
same,TGI,[32],> 100 µM
same,TGI,[34],> 100 µM
same,TGI,[36],> 100 µM
same,TGI,[38],> 100 µM
same,TGI,[40],> 100 µM
same,TGI,[44],> 100 µM
same,TGI,[46],> 100 µM
same,TGI,[57],> 100 µM
same,TGI,[51],> 100 µM
same,TGI,[54],> 100 µM
same,TGI,[56],> 100 µM
O=C1OCC=C1COC1OC(CO)C(O)C(O)C1O (configuration not stated),TGI,[1],> 100 µM
same,TGI,[2],> 100 µM
same,TGI,[3],> 100 µM
same,TGI,[4],> 100 µM
same,TGI,[5],> 100 µM
same,TGI,[6],> 100 µM
same,TGI,[7],> 100 µM
same,TGI,[8],> 100 µM
same,TGI,[9],> 100 µM
same,TGI,[10],> 100 µM
same,TGI,[11],> 100 µM
same,TGI,[12],> 100 µM
same,TGI,[13],> 100 µM
same,TGI,[14],> 100 µM
same,TGI,[15],> 100 µM
same,TGI,[16],> 100 µM
same,TGI,[17],> 100 µM
same,TGI,[18],> 100 µM
same,TGI,[19],> 100 µM
same,TGI,[20],> 100 µM
same,TGI,[21],> 100 µM
same,TGI,[22],> 100 µM
same,TGI,[23],> 100 µM
same,TGI,[24],> 100 µM
same,TGI,[25],> 100 µM
same,TGI,[26],> 100 µM
same,TGI,[27],> 100 µM
same,TGI,[28],> 100 µM
same,TGI,[29],> 100 µM
same,TGI,[30],> 100 µM
same,TGI,[31],> 100 µM
same,TGI,[32],39.3 µM
same,TGI,[33],> 100 µM
same,TGI,[34],> 100 µM
same,TGI,[35],> 100 µM
same,TGI,[36],> 100 µM
same,TGI,[37],> 100 µM
same,TGI,[38],> 100 µM
same,TGI,[39],> 100 µM
same,TGI,[40],> 100 µM
same,TGI,[41],> 100 µM
same,TGI,[42],> 100 µM
same,TGI,[43],> 100 µM
same,TGI,[44],> 100 µM
same,TGI,[45],> 100 µM
same,TGI,[46],> 100 µM
same,TGI,[57],> 100 µM
same,TGI,[47],> 100 µM
same,TGI,[48],> 100 µM
same,TGI,[58],> 100 µM
same,TGI,[49],> 100 µM
same,TGI,[50],> 100 µM
same,TGI,[51],> 100 µM
same,TGI,[52],> 100 µM
same,TGI,[53],> 100 µM
same,TGI,[54],> 100 µM
same,TGI,[56],> 100 µM
COc1cc(C=O)cc(/C=N/c2ccccn2)c1O,TGI,[1],> 100 µM
same,TGI,[2],31.3 µM
same,TGI,[3],> 100 µM
same,TGI,[4],6.97 µM
same,TGI,[5],9.76 µM
same,TGI,[6],> 100 µM
same,TGI,[7],29.5 µM
same,TGI,[8],> 100 µM
same,TGI,[9],> 100 µM
same,TGI,[10],> 100 µM
same,TGI,[11],> 100 µM
same,TGI,[12],> 100 µM
same,TGI,[13],83.3 µM
same,TGI,[14],80 µM
same,TGI,[15],8.55 µM
same,TGI,[16],70.6 µM
same,TGI,[17],55 µM
same,TGI,[19],> 100 µM
same,TGI,[20],> 100 µM
same,TGI,[21],30.9 µM
same,TGI,[22],62.2 µM
same,TGI,[23],14.9 µM
same,TGI,[24],> 100 µM
same,TGI,[25],> 100 µM
same,TGI,[26],41.4 µM
same,TGI,[27],35.6 µM
same,TGI,[28],88.7 µM
same,TGI,[29],38.4 µM
same,TGI,[30],> 100 µM
same,TGI,[31],42.7 µM
same,TGI,[33],> 100 µM
same,TGI,[34],59.1 µM
same,TGI,[35],> 100 µM
same,TGI,[36],> 100 µM
same,TGI,[37],12 µM
same,TGI,[38],25.6 µM
same,TGI,[39],51.9 µM
same,TGI,[40],4.97 µM
same,TGI,[41],19 µM
same,TGI,[42],> 100 µM
same,TGI,[43],8.84 µM
same,TGI,[44],10.5 µM
same,TGI,[45],21.9 µM
same,TGI,[46],11.4 µM
same,TGI,[57],78 µM
same,TGI,[47],88.8 µM
same,TGI,[48],> 100 µM
same,TGI,[58],16.3 µM
same,TGI,[49],34.5 µM
same,TGI,[50],> 100 µM
same,TGI,[51],> 100 µM
same,TGI,[52],> 100 µM
same,TGI,[53],55.2 µM
same,TGI,[54],55.3 µM
same,TGI,[55],> 100 µM
same,TGI,[56],14.1 µM
